Results: ChEMBL document CHEMBL5291721, “A preclinical secondary pharmacology resource illuminates target-adverse drug reaction associations of marketed drugs” (Nat Commun, 2023)

Experiments:
[1] = target: 5-hydroxytryptamine receptor 2B (Homo sapiens, UniProt P41595); type: functional, cell-based
[2] = target: Prostaglandin G/H synthase 1 (Homo sapiens, UniProt P23219); type: functional
[3] = target: Histamine H3 receptor (Homo sapiens, UniProt Q9Y5N1)
[4] = target: cGMP-inhibited 3',5'-cyclic phosphodiesterase 3A (Homo sapiens, UniProt Q14432); type: functional
cGMP-inhibited 3',5'-cyclic phosphodiesterase 3A, sequence (Q14432 whole entry): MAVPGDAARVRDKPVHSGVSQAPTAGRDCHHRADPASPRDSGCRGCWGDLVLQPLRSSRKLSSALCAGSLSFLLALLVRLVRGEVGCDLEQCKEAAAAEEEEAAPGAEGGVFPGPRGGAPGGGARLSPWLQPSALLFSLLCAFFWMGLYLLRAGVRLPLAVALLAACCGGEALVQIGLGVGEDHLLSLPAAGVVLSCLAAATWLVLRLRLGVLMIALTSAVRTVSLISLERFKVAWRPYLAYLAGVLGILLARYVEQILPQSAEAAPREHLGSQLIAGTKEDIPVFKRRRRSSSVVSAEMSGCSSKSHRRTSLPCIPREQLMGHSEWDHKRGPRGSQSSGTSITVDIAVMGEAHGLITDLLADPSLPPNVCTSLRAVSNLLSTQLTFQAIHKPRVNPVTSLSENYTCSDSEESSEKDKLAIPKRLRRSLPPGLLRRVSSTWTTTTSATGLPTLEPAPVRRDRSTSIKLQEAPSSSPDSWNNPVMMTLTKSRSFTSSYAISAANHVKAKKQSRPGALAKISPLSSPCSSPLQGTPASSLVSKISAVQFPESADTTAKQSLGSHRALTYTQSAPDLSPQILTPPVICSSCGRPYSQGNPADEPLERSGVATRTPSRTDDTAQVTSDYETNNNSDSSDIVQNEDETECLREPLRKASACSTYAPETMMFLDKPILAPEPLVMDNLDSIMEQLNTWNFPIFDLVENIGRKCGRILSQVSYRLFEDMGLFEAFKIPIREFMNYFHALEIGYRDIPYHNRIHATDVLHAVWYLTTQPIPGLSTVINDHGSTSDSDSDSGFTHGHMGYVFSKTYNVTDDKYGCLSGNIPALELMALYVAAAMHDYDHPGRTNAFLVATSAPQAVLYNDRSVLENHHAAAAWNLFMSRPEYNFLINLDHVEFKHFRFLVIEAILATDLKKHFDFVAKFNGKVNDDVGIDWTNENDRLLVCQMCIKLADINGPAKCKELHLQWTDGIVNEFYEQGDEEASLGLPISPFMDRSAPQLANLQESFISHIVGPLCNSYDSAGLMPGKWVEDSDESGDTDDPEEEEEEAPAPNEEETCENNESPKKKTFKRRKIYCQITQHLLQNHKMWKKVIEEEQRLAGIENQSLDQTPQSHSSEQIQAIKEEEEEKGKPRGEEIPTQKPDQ

[5] = target: T1, 5-hydroxytryptamine receptor 1A (Homo sapiens, UniProt P08908)
T1 sequence (P08908 whole entry): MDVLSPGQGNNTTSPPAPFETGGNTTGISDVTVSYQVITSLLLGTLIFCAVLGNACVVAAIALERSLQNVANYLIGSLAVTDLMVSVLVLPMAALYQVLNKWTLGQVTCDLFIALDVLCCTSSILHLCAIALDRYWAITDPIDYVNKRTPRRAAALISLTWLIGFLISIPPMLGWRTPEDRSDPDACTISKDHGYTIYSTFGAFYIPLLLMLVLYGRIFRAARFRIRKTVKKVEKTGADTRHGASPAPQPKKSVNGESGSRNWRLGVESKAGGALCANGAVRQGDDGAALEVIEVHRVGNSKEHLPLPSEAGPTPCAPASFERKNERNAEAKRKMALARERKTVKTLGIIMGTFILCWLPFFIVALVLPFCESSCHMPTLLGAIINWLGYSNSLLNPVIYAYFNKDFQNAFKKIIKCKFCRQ

[6] = target: D(3) dopamine receptor (Homo sapiens, UniProt P35462)
D(3) dopamine receptor, sequence (P35462 whole entry): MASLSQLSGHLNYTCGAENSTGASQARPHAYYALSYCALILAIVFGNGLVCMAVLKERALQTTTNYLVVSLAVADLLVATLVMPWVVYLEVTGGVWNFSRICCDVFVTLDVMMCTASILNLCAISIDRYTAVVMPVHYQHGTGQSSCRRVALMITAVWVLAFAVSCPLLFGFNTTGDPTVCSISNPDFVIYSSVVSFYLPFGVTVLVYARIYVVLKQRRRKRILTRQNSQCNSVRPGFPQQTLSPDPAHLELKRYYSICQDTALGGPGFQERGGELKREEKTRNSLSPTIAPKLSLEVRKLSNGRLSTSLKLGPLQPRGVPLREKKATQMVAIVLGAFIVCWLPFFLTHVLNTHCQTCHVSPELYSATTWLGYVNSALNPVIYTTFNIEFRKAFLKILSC

[7] = target: T2, Thromboxane A2 receptor (Homo sapiens, UniProt P21731); type: functional, cell-based
T2 sequence (P21731 whole entry): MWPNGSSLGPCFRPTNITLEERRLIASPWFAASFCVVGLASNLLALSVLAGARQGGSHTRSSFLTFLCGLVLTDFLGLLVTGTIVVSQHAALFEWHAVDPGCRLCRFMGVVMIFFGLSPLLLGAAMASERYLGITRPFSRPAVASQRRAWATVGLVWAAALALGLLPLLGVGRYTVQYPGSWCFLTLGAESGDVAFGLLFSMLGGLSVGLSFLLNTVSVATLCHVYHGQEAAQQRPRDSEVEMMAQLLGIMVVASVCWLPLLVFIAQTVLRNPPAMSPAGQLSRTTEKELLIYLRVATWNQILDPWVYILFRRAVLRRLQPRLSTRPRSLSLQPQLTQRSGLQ

[8] = target: T3, Alpha-2A adrenergic receptor (Homo sapiens, UniProt P08913)
T3 sequence (P08913 whole entry): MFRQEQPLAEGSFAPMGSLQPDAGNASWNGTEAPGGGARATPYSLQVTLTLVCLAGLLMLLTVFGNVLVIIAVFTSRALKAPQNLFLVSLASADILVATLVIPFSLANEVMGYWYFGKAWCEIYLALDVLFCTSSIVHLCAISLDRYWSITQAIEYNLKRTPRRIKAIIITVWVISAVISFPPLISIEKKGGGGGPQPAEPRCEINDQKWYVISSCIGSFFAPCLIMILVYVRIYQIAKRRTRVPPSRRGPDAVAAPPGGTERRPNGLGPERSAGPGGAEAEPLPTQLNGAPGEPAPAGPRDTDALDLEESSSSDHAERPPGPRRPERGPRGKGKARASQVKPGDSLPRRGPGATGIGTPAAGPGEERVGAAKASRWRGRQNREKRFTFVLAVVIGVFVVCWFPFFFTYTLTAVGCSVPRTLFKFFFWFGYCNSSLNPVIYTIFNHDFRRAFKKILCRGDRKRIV

[9] = target: T2, Thromboxane A2 receptor; type: functional, cell-based; remark: listed apart in the source
[10] = target: Sodium-dependent dopamine transporter (Homo sapiens, UniProt Q01959)
Sodium-dependent dopamine transporter, sequence (Q01959 whole entry): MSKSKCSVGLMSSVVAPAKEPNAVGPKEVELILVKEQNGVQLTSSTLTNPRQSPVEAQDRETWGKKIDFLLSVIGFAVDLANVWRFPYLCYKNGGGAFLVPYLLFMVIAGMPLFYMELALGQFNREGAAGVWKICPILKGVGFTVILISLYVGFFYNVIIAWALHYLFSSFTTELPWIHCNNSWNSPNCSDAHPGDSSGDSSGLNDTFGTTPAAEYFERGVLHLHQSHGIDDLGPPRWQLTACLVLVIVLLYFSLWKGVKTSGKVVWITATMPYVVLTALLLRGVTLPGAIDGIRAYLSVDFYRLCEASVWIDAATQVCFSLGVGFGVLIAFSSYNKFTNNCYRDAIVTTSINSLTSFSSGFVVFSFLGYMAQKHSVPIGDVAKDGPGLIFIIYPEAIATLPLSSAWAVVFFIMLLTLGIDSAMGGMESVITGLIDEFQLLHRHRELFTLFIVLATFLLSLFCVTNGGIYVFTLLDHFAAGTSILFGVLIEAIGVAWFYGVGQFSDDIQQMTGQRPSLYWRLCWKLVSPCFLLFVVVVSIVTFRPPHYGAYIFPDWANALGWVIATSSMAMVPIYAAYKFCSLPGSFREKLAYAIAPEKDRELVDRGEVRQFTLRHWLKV

[11] = target: Voltage-gated inwardly rectifying potassium channel KCNH2 (Homo sapiens, UniProt Q12809); type: functional
Voltage-gated inwardly rectifying potassium channel KCNH2, sequence (Q12809 whole entry): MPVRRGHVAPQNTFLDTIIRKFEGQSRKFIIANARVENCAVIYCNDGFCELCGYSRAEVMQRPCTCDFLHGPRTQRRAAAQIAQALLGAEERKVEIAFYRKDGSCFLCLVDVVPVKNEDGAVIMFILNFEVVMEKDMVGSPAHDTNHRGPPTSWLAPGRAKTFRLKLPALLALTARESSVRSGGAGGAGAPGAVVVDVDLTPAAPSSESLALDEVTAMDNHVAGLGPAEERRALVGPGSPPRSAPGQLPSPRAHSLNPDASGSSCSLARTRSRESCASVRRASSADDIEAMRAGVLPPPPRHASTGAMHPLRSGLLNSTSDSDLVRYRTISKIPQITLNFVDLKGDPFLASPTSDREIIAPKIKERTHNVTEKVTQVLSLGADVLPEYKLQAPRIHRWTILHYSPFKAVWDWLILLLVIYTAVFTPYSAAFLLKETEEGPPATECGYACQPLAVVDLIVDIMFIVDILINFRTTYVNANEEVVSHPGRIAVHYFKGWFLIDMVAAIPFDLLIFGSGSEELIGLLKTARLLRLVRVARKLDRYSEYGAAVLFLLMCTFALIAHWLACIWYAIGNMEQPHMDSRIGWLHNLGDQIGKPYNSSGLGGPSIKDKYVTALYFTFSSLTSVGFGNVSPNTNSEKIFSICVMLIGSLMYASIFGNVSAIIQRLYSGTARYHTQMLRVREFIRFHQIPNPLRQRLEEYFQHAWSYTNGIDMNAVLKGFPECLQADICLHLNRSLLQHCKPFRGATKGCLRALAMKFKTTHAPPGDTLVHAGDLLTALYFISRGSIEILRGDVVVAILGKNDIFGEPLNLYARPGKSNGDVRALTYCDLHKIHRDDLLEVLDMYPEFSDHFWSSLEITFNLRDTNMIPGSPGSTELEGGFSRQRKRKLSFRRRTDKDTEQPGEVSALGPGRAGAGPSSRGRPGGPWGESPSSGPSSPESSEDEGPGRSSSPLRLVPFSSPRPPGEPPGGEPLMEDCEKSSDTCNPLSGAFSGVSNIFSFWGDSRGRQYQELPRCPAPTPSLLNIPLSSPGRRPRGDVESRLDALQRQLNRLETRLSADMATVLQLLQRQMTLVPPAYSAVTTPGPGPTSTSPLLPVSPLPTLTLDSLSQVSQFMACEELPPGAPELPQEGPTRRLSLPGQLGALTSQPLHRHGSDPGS

[12] = target: T4, Progesterone receptor (Homo sapiens, UniProt P06401)
T4 sequence (P06401 whole entry): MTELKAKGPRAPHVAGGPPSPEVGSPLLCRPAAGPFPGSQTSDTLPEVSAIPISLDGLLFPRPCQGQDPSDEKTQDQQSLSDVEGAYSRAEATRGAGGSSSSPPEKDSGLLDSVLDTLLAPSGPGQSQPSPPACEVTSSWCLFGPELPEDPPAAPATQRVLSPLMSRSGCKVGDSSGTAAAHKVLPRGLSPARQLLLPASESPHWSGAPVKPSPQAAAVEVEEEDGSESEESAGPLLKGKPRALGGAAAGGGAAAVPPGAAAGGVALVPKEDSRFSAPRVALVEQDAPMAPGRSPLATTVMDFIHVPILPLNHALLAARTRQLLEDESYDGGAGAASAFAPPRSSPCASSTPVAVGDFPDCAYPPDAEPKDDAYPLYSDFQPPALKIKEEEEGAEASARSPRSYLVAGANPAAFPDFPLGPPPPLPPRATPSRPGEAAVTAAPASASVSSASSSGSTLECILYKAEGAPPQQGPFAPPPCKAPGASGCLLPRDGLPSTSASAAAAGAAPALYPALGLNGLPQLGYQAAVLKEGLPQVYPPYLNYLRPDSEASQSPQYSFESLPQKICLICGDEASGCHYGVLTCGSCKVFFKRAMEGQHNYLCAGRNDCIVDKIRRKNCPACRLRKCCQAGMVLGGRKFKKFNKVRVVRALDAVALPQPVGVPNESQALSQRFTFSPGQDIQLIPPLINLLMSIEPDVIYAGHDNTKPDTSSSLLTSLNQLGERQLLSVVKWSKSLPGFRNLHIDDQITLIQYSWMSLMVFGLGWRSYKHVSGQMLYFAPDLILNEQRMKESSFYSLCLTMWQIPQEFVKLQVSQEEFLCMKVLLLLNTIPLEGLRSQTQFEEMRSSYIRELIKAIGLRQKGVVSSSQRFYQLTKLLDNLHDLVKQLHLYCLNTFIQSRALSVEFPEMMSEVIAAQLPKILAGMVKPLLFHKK
Note: assay procedure not described here.

5-hydroxytryptamine receptor 2B, sequence (P41595 whole entry): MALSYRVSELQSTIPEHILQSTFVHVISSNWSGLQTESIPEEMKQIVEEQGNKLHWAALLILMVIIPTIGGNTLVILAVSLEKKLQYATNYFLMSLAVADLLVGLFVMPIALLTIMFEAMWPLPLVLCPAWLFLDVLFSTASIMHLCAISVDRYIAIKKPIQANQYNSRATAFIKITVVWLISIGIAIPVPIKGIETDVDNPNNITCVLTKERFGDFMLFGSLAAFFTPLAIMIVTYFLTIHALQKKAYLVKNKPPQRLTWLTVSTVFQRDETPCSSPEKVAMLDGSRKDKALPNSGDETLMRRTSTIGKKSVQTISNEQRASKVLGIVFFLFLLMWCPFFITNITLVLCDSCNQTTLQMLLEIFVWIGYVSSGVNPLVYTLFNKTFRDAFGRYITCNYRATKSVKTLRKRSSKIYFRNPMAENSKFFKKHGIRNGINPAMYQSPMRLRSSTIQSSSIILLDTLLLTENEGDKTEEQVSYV
Histamine H3 receptor, sequence (Q9Y5N1 whole entry): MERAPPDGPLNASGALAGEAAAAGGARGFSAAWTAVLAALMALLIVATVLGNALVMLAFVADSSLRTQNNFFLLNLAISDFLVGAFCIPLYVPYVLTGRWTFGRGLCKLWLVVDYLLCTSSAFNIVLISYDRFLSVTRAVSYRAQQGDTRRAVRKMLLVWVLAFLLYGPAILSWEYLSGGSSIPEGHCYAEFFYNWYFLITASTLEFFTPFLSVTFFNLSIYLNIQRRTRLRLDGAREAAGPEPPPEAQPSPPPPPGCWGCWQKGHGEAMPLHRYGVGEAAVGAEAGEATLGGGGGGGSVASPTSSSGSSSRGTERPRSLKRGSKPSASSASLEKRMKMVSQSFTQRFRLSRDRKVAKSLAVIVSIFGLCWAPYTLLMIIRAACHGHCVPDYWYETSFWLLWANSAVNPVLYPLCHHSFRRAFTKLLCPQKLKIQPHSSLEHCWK
Prostaglandin G/H synthase 1, sequence (P23219 whole entry): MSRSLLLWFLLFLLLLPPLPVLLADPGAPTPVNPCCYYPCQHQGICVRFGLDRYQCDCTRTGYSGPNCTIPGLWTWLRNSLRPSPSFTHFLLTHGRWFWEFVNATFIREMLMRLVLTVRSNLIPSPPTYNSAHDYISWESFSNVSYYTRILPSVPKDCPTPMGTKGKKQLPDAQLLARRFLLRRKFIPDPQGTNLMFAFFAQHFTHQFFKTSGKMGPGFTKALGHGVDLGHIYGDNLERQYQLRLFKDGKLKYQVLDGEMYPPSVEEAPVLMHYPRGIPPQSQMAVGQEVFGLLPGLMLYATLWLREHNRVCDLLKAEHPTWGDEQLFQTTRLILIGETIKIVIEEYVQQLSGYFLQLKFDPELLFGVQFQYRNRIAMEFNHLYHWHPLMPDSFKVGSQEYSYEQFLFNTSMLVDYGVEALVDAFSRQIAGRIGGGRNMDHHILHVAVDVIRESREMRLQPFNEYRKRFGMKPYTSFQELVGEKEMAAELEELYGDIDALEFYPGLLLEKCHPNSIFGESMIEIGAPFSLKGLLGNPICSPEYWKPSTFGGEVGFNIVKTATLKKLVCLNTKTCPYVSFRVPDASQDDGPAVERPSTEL

COC(=O)[C@@H](N)Cc1ccc(O)c(O)c1 [MELEVODOPA]
AC50 [1]: > 30 µM
AC50 [2]: > 30 µM
AC50 [3]: > 30 µM
AC50 [4]: > 30 µM
AC50 [5]: > 30 µM
AC50 [6]: > 30 µM
AC50 [7]: > 30 µM
AC50 [8]: 20.3 µM
AC50 [9]: > 30 µM
AC50 [10]: > 30 µM
AC50 [11]: > 30 µM
AC50 [12]: > 30 µM

CC1(C)O[C@@H]2C[C@H]3[C@@H]4C[C@H](F)C5=CC(=O)C=C[C@]5(C)[C@@]4(F)[C@@H](O)C[C@]3(C)[C@]2(C(=O)CO)O1 [FLUOCINOLONE ACETONIDE]
AC50 [1]: > 30 µM
AC50 [2]: > 30 µM
AC50 [3]: > 30 µM
AC50 [4]: > 30 µM
AC50 [5]: > 30 µM
AC50 [6]: > 30 µM
AC50 [7]: > 30 µM
AC50 [8]: > 30 µM
AC50 [9]: > 30 µM
AC50 [10]: > 30 µM
AC50 [11]: > 30 µM
AC50 [12]: 0.0107 µM

CN(C)c1ccc(O)c2c1C[C@H]1C[C@H]3[C@H](N(C)C)C(O)=C(C(N)=O)C(=O)[C@@]3(O)C(O)=C1C2=O [MINOCYCLINE]
AC50 [1]: > 30 µM
AC50 [2]: 2.5 µM
AC50 [3]: > 30 µM
AC50 [4]: > 30 µM
AC50 [5]: > 30 µM
AC50 [6]: > 30 µM
AC50 [7]: > 30 µM
AC50 [8]: > 30 µM
AC50 [9]: > 30 µM
AC50 [10]: > 30 µM
AC50 [11]: > 30 µM
AC50 [12]: > 30 µM

Cc1ccc(C(=O)c2ccc(CC(=O)O)n2C)cc1 [TOLMETIN]
AC50 [1]: > 30 µM
AC50 [2]: 0.0415 µM
AC50 [3]: > 30 µM
AC50 [4]: > 30 µM
AC50 [5]: > 30 µM
AC50 [6]: > 30 µM
AC50 [7]: > 30 µM
AC50 [8]: > 30 µM
AC50 [9]: > 30 µM
AC50 [10]: > 30 µM
AC50 [11]: > 30 µM
AC50 [12]: > 30 µM

Cc1ccc(C)c(OCCCC(C)(C)C(=O)O)c1 [GEMFIBROZIL]
AC50 [1]: > 30 µM
AC50 [2]: > 30 µM
AC50 [3]: > 30 µM
AC50 [4]: > 30 µM
AC50 [5]: > 30 µM
AC50 [6]: > 30 µM
AC50 [7]: > 30 µM
AC50 [8]: > 30 µM
AC50 [9]: > 30 µM
AC50 [10]: > 30 µM
AC50 [11]: > 30 µM
AC50 [12]: > 30 µM

Cc1cc(=O)oc2cc(O)ccc12 [HYMECROMONE]
AC50 [1]: > 30 µM
AC50 [2]: > 30 µM
AC50 [3]: > 30 µM
AC50 [4]: > 30 µM
AC50 [5]: > 30 µM
AC50 [6]: > 30 µM
AC50 [7]: > 30 µM
AC50 [8]: > 30 µM
AC50 [9]: > 30 µM
AC50 [10]: > 30 µM
AC50 [11]: > 30 µM
AC50 [12]: > 30 µM

C[Se]CC[C@H](N)C(=O)O [SELENOMETHIONINE]
AC50 [1]: > 30 µM
AC50 [2]: > 30 µM
AC50 [3]: > 30 µM
AC50 [4]: > 30 µM
AC50 [5]: > 30 µM
AC50 [6]: > 30 µM
AC50 [7]: > 30 µM
AC50 [8]: > 30 µM
AC50 [9]: > 30 µM
AC50 [10]: > 30 µM
AC50 [11]: > 30 µM
AC50 [12]: > 30 µM

Nc1cccc2c1C(=O)N(C1CCC(=O)NC1=O)C2=O (stereo not drawn) [POMALIDOMIDE]
AC50 [1]: > 30 µM
AC50 [2]: > 30 µM
AC50 [3]: > 30 µM
AC50 [4]: > 30 µM
AC50 [5]: > 30 µM
AC50 [6]: > 30 µM
AC50 [7]: > 30 µM
AC50 [8]: > 30 µM
AC50 [9]: 26.7 µM
AC50 [10]: > 30 µM
AC50 [11]: > 30 µM
AC50 [12]: > 30 µM

COc1cc(C(C)=O)ccc1OCCCN1CCC(c2noc3cc(F)ccc23)CC1 [ILOPERIDONE]
AC50 [1]: > 30 µM
AC50 [2]: > 30 µM
AC50 [3]: > 30 µM
AC50 [4]: > 30 µM
AC50 [5]: 0.11 µM
AC50 [6]: 0.0099 µM
AC50 [7]: > 10 µM
AC50 [8]: 0.06 µM
AC50 [9]: > 10 µM
AC50 [10]: 5.94 µM
AC50 [11]: 0.15 µM
AC50 [12]: > 30 µM

O=C(O)CN(CCN(CC(=O)O)CC(=O)O)CCN(CC(=O)O)CC(=O)O [PENTETIC ACID]
AC50 [1]: > 30 µM
AC50 [2]: > 30 µM
AC50 [3]: 19.8 µM
AC50 [4]: > 30 µM
AC50 [5]: > 30 µM
AC50 [6]: 2.26 µM
AC50 [7]: > 30 µM
AC50 [8]: 1.32 µM
AC50 [9]: > 30 µM
AC50 [10]: 6.51 µM
AC50 [11]: > 30 µM
AC50 [12]: > 30 µM

CC(C)NC(=N)NC(=N)Nc1ccc(Cl)c(Cl)c1 [CHLORPROGUANIL]
AC50 [1]: > 30 µM
AC50 [2]: > 30 µM
AC50 [3]: > 30 µM
AC50 [4]: > 30 µM
AC50 [5]: 3.82 µM
AC50 [6]: > 30 µM
AC50 [7]: > 10 µM
AC50 [8]: 5.59 µM
AC50 [9]: > 30 µM
AC50 [10]: 1.86 µM
AC50 [11]: 2.6 µM
AC50 [12]: > 30 µM

CC[C@@H]1C[C@]1(NC(=O)[C@@H]1C[C@@H]2CN1C(=O)[C@H](C(C)(C)C)NC(=O)OCC(C)(C)CCCCc1cccc3c1CN(C3)C(=O)O2)C(=O)NS(=O)(=O)C1CC1
AC50 [1]: > 30 µM
AC50 [2]: > 30 µM
AC50 [3]: > 30 µM
AC50 [4]: > 30 µM
AC50 [5]: > 30 µM
AC50 [6]: > 30 µM
AC50 [7]: > 3 µM
AC50 [8]: > 30 µM
AC50 [9]: 29.5 µM
AC50 [10]: > 30 µM
AC50 [11]: > 30 µM
AC50 [12]: > 30 µM

CC(C)C[C@H](NC(=O)[C@@H](O)[C@H](N)Cc1ccccc1)C(=O)O [UBENIMEX]
AC50 [1]: > 30 µM
AC50 [2]: > 30 µM
AC50 [3]: > 30 µM
AC50 [4]: > 30 µM
AC50 [5]: > 30 µM
AC50 [6]: > 30 µM
AC50 [7]: > 30 µM
AC50 [8]: > 30 µM
AC50 [9]: > 30 µM
AC50 [10]: > 30 µM
AC50 [11]: > 30 µM
AC50 [12]: > 30 µM

COc1ccc2[nH]c([S+]([O-])Cc3ncc(C)c(OC)c3C)nc2c1 (stereo not drawn) [OMEPRAZOLE]
AC50 [1]: > 30 µM
AC50 [2]: > 30 µM
AC50 [3]: > 30 µM
AC50 [4]: > 30 µM
AC50 [5]: > 30 µM
AC50 [6]: 20.7 µM
AC50 [7]: > 30 µM
AC50 [8]: > 30 µM
AC50 [9]: > 30 µM
AC50 [10]: > 30 µM
AC50 [11]: 17 µM
AC50 [12]: > 30 µM
